Experiments:
Experiment in all cases: relative viability (nuclei count vs DMSO), 5 days (fraction); higher = more cells survive
201T = tested on: 201T
How it was run: (§1)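 Relative viability divides the nuclei count in treated wells by that in vehicle wells. Lung cancer cell lines were seeded in 1536-well plates, dosed by pin tool the next day, and fixed and stained after 5 days in one step with final 0.05% Triton X-100, 1% formaldehyde and 1 ug/ml Hoechst. Dosing was a single drug or a fixed anchor-drug dose plus five library-drug doses (not always all listed) in √10 steps, and values are medians of duplicate plates imaged at 4×.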

BEN = tested on: BEN
How it was run: as §1

CAL-12T = tested on: CAL-12T
How it was run: as §1

HCC-44 = tested on: HCC-44
How it was run: as §1

HCC-827 = tested on: HCC-827
How it was run: as §1

HOP-62 = tested on: HOP-62
How it was run: as §1

LCLC-97TM1 = tested on: LCLC-97TM1
How it was run: as §1

LXF-289 = tested on: LXF-289
How it was run: as §1

NCI-H1395 = tested on: NCI-H1395
How it was run: as §1

NCI-H1437 = tested on: NCI-H1437
How it was run: as §1

NCI-H1650 = tested on: NCI-H1650
How it was run: as §1

NCI-H1793 = tested on: NCI-H1793
How it was run: as §1

NCI-H1944 = tested on: NCI-H1944
How it was run: as §1

NCI-H2087 = tested on: NCI-H2087
How it was run: as §1

NCI-H2228 = tested on: NCI-H2228
How it was run: as §1

NCI-H2405 = tested on: NCI-H2405
How it was run: as §1

NCI-H3122 = tested on: NCI-H3122
How it was run: as §1

NCI-H322M = tested on: NCI-H322M
How it was run: as §1

NCI-H647 = tested on: NCI-H647
How it was run: as §1

NCI-H727 = tested on: NCI-H727
How it was run: as §1

RERF-LC-KJ = tested on: RERF-LC-KJ
How it was run: as §1

SK-LU-1 = tested on: SK-LU-1
How it was run: as §1

## O=C(O)c1ccc(-c2c[nH]c3ncc(-c4ccccc4)cc23)cc1C1CCCC1 + CS(=O)(=O)CCNCc1ccc(-c2ccc3ncnc(Nc4ccc(OCc5cccc(F)c5)c(Cl)c4)c3c2)o1 [Lapatinib] (partner 2 µM)
201T; first compound 0.04 µM
  relative viability: 0.966
201T; first compound 0.1265 µM
  relative viability: 1.06
201T; first compound 0.4 µM
  relative viability: 1.01
201T; first compound 1.265 µM
  relative viability: 0.988
BEN; first compound 0.04 µM
  relative viability: 0.717
BEN; first compound 0.1265 µM
  relative viability: 0.611
BEN; first compound 0.4 µM
  relative viability: 0.815
BEN; first compound 1.265 µM
  relative viability: 0.666
CAL-12T; first compound 0.04 µM
  relative viability: 0.788
CAL-12T; first compound 0.1265 µM
  relative viability: 0.908
CAL-12T; first compound 0.4 µM
  relative viability: 0.705
CAL-12T; first compound 1.265 µM
  relative viability: 0.423
HCC-44; first compound 0.04 µM
  relative viability: 0.959
HCC-44; first compound 0.1265 µM
  relative viability: 1.02
HCC-44; first compound 0.4 µM
  relative viability: 1.1
HCC-44; first compound 1.265 µM
  relative viability: 0.913
HCC-827; first compound 0.04 µM
  relative viability: 0.209
HCC-827; first compound 0.1265 µM
  relative viability: 0.196
HCC-827; first compound 0.4 µM
  relative viability: 0.189
HCC-827; first compound 1.265 µM
  relative viability: 0.195
HOP-62; first compound 0.04 µM
  relative viability: 1.23
HOP-62; first compound 0.1265 µM
  relative viability: 0.993
HOP-62; first compound 0.4 µM
  relative viability: 1.1
HOP-62; first compound 1.265 µM
  relative viability: 0.897
LCLC-97TM1; first compound 0.04 µM
  relative viability: 1.34
LCLC-97TM1; first compound 0.1265 µM
  relative viability: 1.06
LCLC-97TM1; first compound 0.4 µM
  relative viability: 0.922
LCLC-97TM1; first compound 1.265 µM
  relative viability: 0.717
LXF-289; first compound 0.04 µM
  relative viability: 0.96
LXF-289; first compound 0.1265 µM
  relative viability: 0.936
LXF-289; first compound 0.4 µM
  relative viability: 0.822
LXF-289; first compound 1.265 µM
  relative viability: 0.619
NCI-H1395; first compound 0.04 µM
  relative viability: 1.01
NCI-H1395; first compound 0.1265 µM
  relative viability: 1.23
NCI-H1395; first compound 0.4 µM
  relative viability: 0.867
NCI-H1395; first compound 1.265 µM
  relative viability: 0.851
NCI-H1437; first compound 0.04 µM
  relative viability: 0.794
NCI-H1437; first compound 0.1265 µM
  relative viability: 0.823
NCI-H1437; first compound 0.4 µM
  relative viability: 0.765
NCI-H1437; first compound 1.265 µM
  relative viability: 0.338
NCI-H1650; first compound 0.04 µM
  relative viability: 0.731
NCI-H1650; first compound 0.1265 µM
  relative viability: 0.758
NCI-H1650; first compound 0.4 µM
  relative viability: 0.725
NCI-H1650; first compound 1.265 µM
  relative viability: 0.529
NCI-H1793; first compound 0.04 µM
  relative viability: 0.897
NCI-H1793; first compound 0.1265 µM
  relative viability: 1.34
NCI-H1793; first compound 0.4 µM
  relative viability: 0.969
NCI-H1793; first compound 1.265 µM
  relative viability: 0.71
NCI-H1944; first compound 0.04 µM
  relative viability: 0.695
NCI-H1944; first compound 0.1265 µM
  relative viability: 1
NCI-H1944; first compound 0.4 µM
  relative viability: 0.623
NCI-H1944; first compound 1.265 µM
  relative viability: 0.736
NCI-H2087; first compound 0.04 µM
  relative viability: 1.01
NCI-H2087; first compound 0.1265 µM
  relative viability: 1.27
NCI-H2087; first compound 0.4 µM
  relative viability: 1.02
NCI-H2087; first compound 1.265 µM
  relative viability: 1.02
NCI-H2228; first compound 0.04 µM
  relative viability: 1.17
NCI-H2228; first compound 0.1265 µM
  relative viability: 1.41
NCI-H2228; first compound 0.4 µM
  relative viability: 1.2
NCI-H2228; first compound 1.265 µM
  relative viability: 0.362
NCI-H2405; first compound 0.04 µM
  relative viability: 1.08
NCI-H2405; first compound 0.1265 µM
  relative viability: 1.34
NCI-H2405; first compound 0.4 µM
  relative viability: 0.868
NCI-H2405; first compound 1.265 µM
  relative viability: 0.867
NCI-H3122; first compound 0.04 µM
  relative viability: 1.02
NCI-H3122; first compound 0.1265 µM
  relative viability: 1.01
NCI-H3122; first compound 0.4 µM
  relative viability: 0.974
NCI-H3122; first compound 1.265 µM
  relative viability: 0.857
NCI-H322M; first compound 0.04 µM
  relative viability: 0.589
NCI-H322M; first compound 0.1265 µM
  relative viability: 0.618
NCI-H322M; first compound 0.4 µM
  relative viability: 0.727
NCI-H322M; first compound 1.265 µM
  relative viability: 0.55
NCI-H647; first compound 0.04 µM
  relative viability: 1.05
NCI-H647; first compound 0.1265 µM
  relative viability: 1.12
NCI-H647; first compound 0.4 µM
  relative viability: 1.13
NCI-H647; first compound 1.265 µM
  relative viability: 0.801
NCI-H727; first compound 0.04 µM
  relative viability: 0.955
NCI-H727; first compound 0.1265 µM
  relative viability: 1
NCI-H727; first compound 0.4 µM
  relative viability: 0.876
NCI-H727; first compound 1.265 µM
  relative viability: 1.16
RERF-LC-KJ; first compound 0.04 µM
  relative viability: 0.8
RERF-LC-KJ; first compound 0.1265 µM
  relative viability: 0.848
RERF-LC-KJ; first compound 0.4 µM
  relative viability: 0.832
RERF-LC-KJ; first compound 1.265 µM
  relative viability: 0.825
SK-LU-1; first compound 0.04 µM
  relative viability: 0.874
SK-LU-1; first compound 0.1265 µM
  relative viability: 0.831
SK-LU-1; first compound 0.4 µM
  relative viability: 0.771
SK-LU-1; first compound 1.265 µM
  relative viability: 0.488

— the supplement of paper PMC10307832
